Here are results for two molecules from article PMC9317316, “Synthesis and Evaluation of Some New 4H-Pyran Derivatives as Antioxidant, Antibacterial and Anti-HCT-116 Cells of CRC, with Molecular Docking, Antiproliferative, Apoptotic and ADME Investigations” (Pharmaceuticals, 2022).

Where “and” joins values, the source holds several entries; their conditions need not be identical. Identical values can stand only once.

Assay [1] deals with S. epidermidis (ATCC 14990). The assay is described as follows: Antibacterial viability (CFU) assay, IC50. The class given is cell-based. The conditions noted are these: Staphylococcus epidermidis, ATCC14990. Put shortly: (§1)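 Agar diffusion: inhibition zone on top agar, ampicillin 10 µg/well reference. CFU assay: compound mixed with 2 ×10^7 CFU/mL in BHI, shaken 60 min at 37 °C, serially diluted, plated and grown 24 h at 37 °C; IC50 from residual CFUs versus initial inoculum, mean of three measurements.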

Assay [2] relates to K. pneumonia (ATCC 700603). The assay is described as follows: Antibacterial viability (CFU) assay, IC50. The class given is cell-based. Particulars: Klebsiella pneumoniae, ATCC700603. The method in brief: as §1
Assay [3] concerns B. cereus (ATCC 14579). The assay is described as follows: Antibacterial viability (CFU) assay, IC50. It is filed as cell-based. The conditions noted are these: Bacillus cereus, ATCC14579. The method in brief:
as §1

Assay [4] relates to E. coli (ATCC 25966). The assay is described as follows: Antibacterial viability (CFU) assay, IC50. It is filed as cell-based. The conditions noted are these: Escherichia coli, ATCC25966; E. coil (ATCC 25966). Put shortly: as §1
Assay [5] deals with B. subtilis (ATCC 6633). The assay is described as follows: Antibacterial viability (CFU) assay, IC50. It is filed as cell-based. Particulars: Bacillus subtilis, ATCC6633, B. subtilis (ATCC 6633). The method in brief:
as §1

Assay [6] deals with S. enteric (ATCC 43972). The assay is described as follows: Antibacterial viability (CFU) assay, IC50. It is filed as cell-based. Particulars: read-out: IC50. Put shortly: as §1
Assay [7] relates to E. faecalis (ATCC 29122). The assay is described as follows: Antibacterial viability (CFU) assay, IC50. The class given is cell-based. Particulars: Enterococcus faecalis, ATCC29122. The method in brief: as §1
Assay [8] deals with S. aureus (ATCC 25923). The assay is described as follows: Antibacterial viability (CFU) assay, IC50. The class given is cell-based. The conditions noted are these: Staphylococcus aureus, ATCC25923. The method in brief:
as §1

In assay [9] the test system is P. aeruginosa (ATCC 27853). The assay is described as follows: Antibacterial viability (CFU) assay, IC50. It is filed as cell-based. Particulars: Pseudomonas aeruginosa, ATCC27853. The method in brief:
as §1

In assay [10] the test system is S. epidermidis (ATCC 14990). The assay is described as follows: Antibacterial agar diffusion method (inhibition zone). The class given is cell-based. Put shortly:
as §1
(In agar diffusion tests the substance spreads into inoculated agar from a disc or well.)

Assay [11] relates to K. pneumonia (ATCC 700603). The assay is described as above. It is filed as cell-based. The method in brief: as §1
The subject of assay [12] is B. cereus (ATCC 14579). Described as above. It is filed as cell-based. Put shortly: as §1
Assay [13] deals with E. coli (ATCC 25966). The description is as above. The class given is cell-based. Particulars: E. coil (ATCC 25966). Put shortly: as §1
Assay [14] deals with B. subtilis (ATCC 6633). The assay is described as above. It is filed as cell-based. Put shortly:
as §1

In assay [15] the test system is E. faecalis (ATCC 29122). Described as above. The class given is cell-based. The method in brief:
as §1

In assay [16] the test system is S. aureus (ATCC 25923). The description is as above. The class given is cell-based. Put shortly:
as §1

Assay [17] deals with P. aeruginosa (ATCC 27853). The description is as above. It is filed as cell-based. Put shortly: as §1
In assay [18] the target is T1, CDK2/CyclinA2 enzyme (Homo sapiens, UniProt P24941).
T1 construct: purchased BPS Biosciences, San Diego, CA, USA 79599
The assay is described as follows: In vitro CDK2 inhibitory assay (Kinase-Glo). It is filed as biochemical. Particulars: for IC50: deduced from curves over 0.01-10 µM, read-out: IC50 against CDK2. How it is done:
To further substantiate the promising results of the docking analyses of pyrans 4d and 4K in the ATP active site of CDK2, their in vitro potencies to inhibit the enzyme activity were evaluated over a concentration range of 0.01−10 µM.
CDK-2 inhibition activity of the studied compounds 4d and 4k was evaluated using a commercial CDK2 […] (cat. no.: 79599; BPS Biosciences, San Diego, CA, USA) following the manufacturer’s instructions. Briefly, different concentrations of each compound or the positive control BMS-265246 (0.01, 0. 1, 1 or 10 µM) were incubated with 20 µL of diluted CDK2/CyclinA2 enzyme at 30 °C for 45 min. Following the addition of 50 µL Kinase-Glo® Reagent to each well, the plate was incubated at room temperature for 15 min. Then, the luminescence signal was measured using the microplate reader. The CDK2 inhibitory activity was expressed as inhibition percentage, which was determined by comparison with a control experiment for comparative purposes. IC50 values were deduced from the curves. All measurements were performed in triplicate.
On the technique in general: Kinase-Glo measures the ATP left after a reaction by luminescence.

The nature of assay [19]: DPPH radical scavenging assay. Particulars: for IC50: 0.03 to 1 mg/mL, 1 h, mean ± SD, triplicate, read-out: IC50 (mM) for DPPH Scavenging Potency. The method in brief:
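Ethanolic DPPH mixed with samples at 0.03 to 1 mg/mL, kept 1 h at room temperature in darkness, then absorbance read at 519 nm against compound-free control. Scavenging percentage computed as (1 − Acompound/Acontrol) × 100; IC50 interpolated from scavenging-versus-concentration plot.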
For orientation: Loss of DPPH colour is used to gauge radical scavenging.

Consider `COc1cc(C2C(C#N)=C(N)OC(C)=C2C(=O)OCc2ccccc2)cc(OC)c1OC` (stereo not drawn) [4d, 6-Amino-5-cyano-2-methyl-4-(3,4,5-trimethoxy-phenyl)-4H-pyran-3-carboxylic acid benzyl ester], for which the IC50 (usually the concentration that inhibits the measured activity by half) in assay [1] worked out at 26.7 ± 1.15 µM; in assay [2], 72.63 ± 0.69 µM; in [3], 39.5 ± 0.8 µM; in [4] it was 88.7 ± 2.52 µM; in [5] it was 40.3 ± 1.95 µM; in [6], 65.8 ± 2.29 µM. In addition, the concentration for half-maximal inhibition (IC50) in assay [7] was found to be 29.1 ± 2.27 µM; in assay [8], 24.4 ± 1.15 µM; in assay [9] it was 67.4 ± 1.37 µM; in assay [18] it was 143 nM; in assay [19] it was 0.504 ± 0.032 mM. Moreover, the “IZ (mm)” value was 8.50 ± 0.71 mm in [10]; 4.5 ± 0.7 mm in [11]; 9.50 ± 0.71 mm in assay [12]; 3.5 ± 0.71 mm in [13]; 12.00 ± 1.41 mm in assay [14]; 14.50 mm and 14.50 ± 0.71 mm in assay [15]. In addition, the “IZ (mm)” value in assay [16] was 9.00 mm and 9.00 ± 1.41 mm; in [17], 6.5 ± 0.7 mm. In addition, the “decrease of CDK2 activity” value is 26.9% in assay [18] (at 0.01 µM), 41.5% in assay [18] (at 0.1 µM), 72.5% in assay [18] (at 1 µM) and 89% in [18] (at 10 µM). In [19], the “DPPH Radical Scavenging Effenciency (%) at 1 mg/mL” value is 65.25% and 65.25 ± 1.77%.
For the molecule `CC1=C(C(=O)OCc2ccccc2)C(c2ccc(C#N)cc2)C(C#N)=C(N)O1` (stereo not drawn) [4k, 6-Amino-5-cyano-4-(4-cyano-phenyl)-2-methyl-4H-pyran-3-carboxylic acid benzyl ester], the IC50 in [1] is 50.2 ± 2.48 µM; in assay [2], 77.8 ± 2.96 µM; in [3], 48.1 ± 1.35 µM; in [4], 80.2 ± 4.31 µM; in assay [5], 42.1 ± 2.48 µM; in assay [6], 75.5 ± 2.42 µM. For the same molecule, the IC50 in [7] is 45.4 ± 0.57 µM; in assay [8], 43.9 ± 0.57 µM; in assay [9], 73.2 ± 3.5 µM; in assay [18] it was 214 nM; in [19], 1.05 ± 0.075 mM. The “IZ (mm)” value was found to be 4.50 ± 0.71 mm in assay [10]; 2.5 ± 0.7 mm in assay [11]; 7.00 ± 1.41 mm in [12]; 4.5 ± 0.71 mm in assay [13]; 4.50 ± 0.71 mm in assay [14]; 5.50 ± 0.71 mm in [15]. The “IZ (mm)” value in assay [16] is 5.75 ± 0.35 mm; in assay [17], 3.5 ± 0.7 mm. In addition, the “decrease of CDK2 activity” value is recorded as 21.9% in assay [18] (at 0.01 µM), 42.4% in assay [18] (at 0.1 µM), 66.3% in assay [18] (at 1 µM) and 83.6% in [18] (at 10 µM). Besides, in [19], the “DPPH Radical Scavenging Effenciency (%) at 1 mg/mL” value is on record as 40.55 ± 2.19%.
